Measured values: US20070149480A1 (Alcon, Inc., priority 2005, published 2007)
Values after ≈ are worked out from the molar mass of the structure shown.

How the values were obtained:
[1] = Solubility of RTKi in phosphate buffer vehicle containing sulfobutylether beta cyclodextrin (SBCD); assay type: physicochemical; conditions: for solubility: RTKi Solubility
Source text: (§1) The present inventors have discovered that use of cyclodextrin derivatives to solubilize highly insoluble anti-angiogenic active compounds provides an efficacious ophthalmic formulation. […] Prototype intravitreal vehicle is shown in Example 1, and intravitreal and PJ formulations of the active compound containing HPCD are provided in Examples 2 and 3, respectively.

[2] = Solubility of RTKi in phosphate buffer vehicle containing hydroxypropyl cyclodextrin (HPCD); assay type: physicochemical; conditions: for solubility enhancement: 10% HPCD in phosphate buffer vs phosphate buffer alone; for solubility: RTKi Solubility
Source text: as §1
Solubility of RTKi in phosphate buffer vehicle containing various amount of hydroxypropyl cyclodextrin (HPCD).

FGFR = experiment: Kinase inhibition, cell-free enzymatic assay; assay type: biochemical; conditions: 1 mM ATP
Protocol: All data reported as IC50 values for kinase inhibition in cell-free enzymatic assays; ND denotes no data. Values determined @ 1 mM ATP.

RTKi Solubility ([1]; 10% SBCD Phosphate Buffer): 2.5265 mg/mL | solubility ([1]; phosphate buffer (0% SBCD), pH 7.2, aqueous buffer): 0.59 µg/mL (≈ 1.57 µM) | solubility ([1]; phosphate buffer with 1% SBCD, pH 7.2, aqueous with cosolvent or surfactant or cyclodextrin, 1% SBCD in Phosphate Buffer): 188 µg/mL (≈ 501 µM) | solubility ([1]; phosphate buffer with 2.5% SBCD, pH 7.2, aqueous with cosolvent or surfactant or cyclodextrin, 2.5% SBCD Phosphate Buffer): 641 µg/mL (≈ 1710 µM) | solubility ([1]; phosphate buffer with 5% SBCD, pH 7.2, aqueous with cosolvent or surfactant or cyclodextrin, 5% SBCD Phosphate Buffer): 1090 µg/mL (≈ 2910 µM) | solubility ([1]; phosphate buffer with 10% SBCD, pH 7.2, aqueous with cosolvent or surfactant or cyclodextrin, 10% SBCD Phosphate Buffer): 2520 µg/mL (≈ 6710 µM) | solubility ([1]; phosphate buffer with 20% SBCD, pH 7.2, aqueous with cosolvent or surfactant or cyclodextrin, 20% SBCD Phosphate Buffer): 4120 µg/mL (≈ 11000 µM) | RTKi Solubility ([2]; 10% HPCD Phosphate Buffer): 1.0988 mg/mL | solubility expressed as percent ([2]; 10% HPCD in phosphate buffer): about 0.1% | solubility enhancement [2]: More than 1800 fold | solubility enhancement ([2]; listed as active compound): approximately 1800 fold | solubility ([2]; phosphate buffer (0% HPCD), pH 7.2, aqueous buffer, pH 7.2): 0.59 µg/mL (≈ 1.57 µM) | solubility ([2]; phosphate buffer with 1% HPCD, pH 7.2, aqueous with cosolvent or surfactant or cyclodextrin, 1% HPCD in Phosphate Buffer): 82.3 µg/mL (≈ 219 µM) | solubility ([2]; phosphate buffer with 5% HPCD, pH 7.2, aqueous with cosolvent or surfactant or cyclodextrin, 5% HPCD Phosphate Buffer): 527 µg/mL (≈ 1400 µM) | solubility ([2]; phosphate buffer with 10% HPCD, pH 7.2, aqueous with cosolvent or surfactant or cyclodextrin, 10% HPCD Phosphate Buffer): 1090 µg/mL (≈ 2900 µM) | IC50 (FGFR): > 12.5 µM
SMILES: Cc1ccc(F)c(NC(=O)Nc2ccc(-c3cccc4[nH]nc(N)c34)cc2)c1 [RTKi, N-[4-(3-amino-1H-indazol-4-yl)phenyl]-N′-(2-fluoro-5-methylphenyl) urea]
